# Source: US20130196050A1, “SALTY TASTE ENHANCER” (AJINOMOTO CO., INC., priority 2010, published 2013)
# Tests used:
# [1] = target: T1, ENaC β subunit (Homo sapiens, UniProt P51168); conditions: literature statement; cited from earlier work
# T1 sequence (P51168 1-640): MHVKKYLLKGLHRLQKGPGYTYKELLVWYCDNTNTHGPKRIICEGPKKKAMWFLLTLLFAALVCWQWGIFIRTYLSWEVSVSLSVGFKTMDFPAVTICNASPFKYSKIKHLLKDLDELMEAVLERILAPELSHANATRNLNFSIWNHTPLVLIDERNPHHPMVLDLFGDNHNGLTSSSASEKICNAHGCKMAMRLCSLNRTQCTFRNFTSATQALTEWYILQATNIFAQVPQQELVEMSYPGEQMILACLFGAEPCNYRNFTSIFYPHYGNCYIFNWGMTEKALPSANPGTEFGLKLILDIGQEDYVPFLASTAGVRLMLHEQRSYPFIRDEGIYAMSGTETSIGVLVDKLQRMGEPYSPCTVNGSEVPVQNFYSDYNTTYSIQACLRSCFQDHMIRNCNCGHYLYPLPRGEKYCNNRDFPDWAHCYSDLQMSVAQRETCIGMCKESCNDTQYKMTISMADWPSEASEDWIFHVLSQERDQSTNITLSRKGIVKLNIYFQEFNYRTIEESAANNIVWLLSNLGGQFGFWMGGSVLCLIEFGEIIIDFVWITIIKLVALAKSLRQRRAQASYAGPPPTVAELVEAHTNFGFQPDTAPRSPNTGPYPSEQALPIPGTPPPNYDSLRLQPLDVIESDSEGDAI
# T1 sequence (P51170 1-649 partner): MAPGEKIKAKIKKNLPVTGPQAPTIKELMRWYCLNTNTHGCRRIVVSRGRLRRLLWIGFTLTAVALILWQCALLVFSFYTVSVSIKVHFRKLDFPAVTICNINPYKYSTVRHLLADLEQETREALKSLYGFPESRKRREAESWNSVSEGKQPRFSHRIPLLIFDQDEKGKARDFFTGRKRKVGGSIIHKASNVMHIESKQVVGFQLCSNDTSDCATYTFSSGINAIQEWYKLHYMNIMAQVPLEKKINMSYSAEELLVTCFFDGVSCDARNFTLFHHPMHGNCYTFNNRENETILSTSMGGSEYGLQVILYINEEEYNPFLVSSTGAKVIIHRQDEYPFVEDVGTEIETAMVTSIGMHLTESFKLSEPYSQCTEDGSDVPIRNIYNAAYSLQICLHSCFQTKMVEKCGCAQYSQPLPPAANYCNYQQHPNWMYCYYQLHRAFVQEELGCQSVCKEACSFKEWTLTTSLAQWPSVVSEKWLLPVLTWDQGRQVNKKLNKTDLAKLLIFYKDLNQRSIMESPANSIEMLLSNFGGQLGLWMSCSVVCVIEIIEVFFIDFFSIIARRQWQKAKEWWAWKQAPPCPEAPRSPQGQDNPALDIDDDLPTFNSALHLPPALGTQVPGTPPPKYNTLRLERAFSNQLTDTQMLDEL
# T1 sequence (P37088 1-669 partner): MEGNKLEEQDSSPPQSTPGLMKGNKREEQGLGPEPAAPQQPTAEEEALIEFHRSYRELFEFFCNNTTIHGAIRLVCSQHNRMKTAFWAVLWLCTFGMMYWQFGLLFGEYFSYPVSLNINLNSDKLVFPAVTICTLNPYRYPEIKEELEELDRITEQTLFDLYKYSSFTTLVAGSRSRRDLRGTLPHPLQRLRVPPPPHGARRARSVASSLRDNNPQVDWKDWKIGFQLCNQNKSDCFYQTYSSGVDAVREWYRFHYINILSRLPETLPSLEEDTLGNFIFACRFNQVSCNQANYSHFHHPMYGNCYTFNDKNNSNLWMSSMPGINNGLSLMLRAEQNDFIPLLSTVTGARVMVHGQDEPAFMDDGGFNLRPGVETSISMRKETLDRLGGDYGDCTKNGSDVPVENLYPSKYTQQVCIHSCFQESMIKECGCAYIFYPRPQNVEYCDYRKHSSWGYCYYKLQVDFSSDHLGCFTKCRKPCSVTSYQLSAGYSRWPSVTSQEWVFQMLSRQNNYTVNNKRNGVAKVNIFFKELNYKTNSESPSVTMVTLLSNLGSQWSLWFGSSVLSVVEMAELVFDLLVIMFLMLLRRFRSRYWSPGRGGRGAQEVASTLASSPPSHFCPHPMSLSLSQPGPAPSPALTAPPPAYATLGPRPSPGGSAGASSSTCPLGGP
# [2] = target: T2, Human ENaC δ, β and γ subunit (Homo sapiens, UniProt P51168+P51170+P51172); experiment: Measurement of ENaC activation potency (two electrode voltage clamp current in ENaC-expressing oocyte); type: cell-based; conditions: lowest concentration increasing the current value by not less than 10% vs before addition
# T2 construct: expressed in transfected cells; host or cells: Xenopus laevis (African clawed frog) oocytes injected with cRNA
# T2 sequence (P51172 1-638 isoform P51172-1): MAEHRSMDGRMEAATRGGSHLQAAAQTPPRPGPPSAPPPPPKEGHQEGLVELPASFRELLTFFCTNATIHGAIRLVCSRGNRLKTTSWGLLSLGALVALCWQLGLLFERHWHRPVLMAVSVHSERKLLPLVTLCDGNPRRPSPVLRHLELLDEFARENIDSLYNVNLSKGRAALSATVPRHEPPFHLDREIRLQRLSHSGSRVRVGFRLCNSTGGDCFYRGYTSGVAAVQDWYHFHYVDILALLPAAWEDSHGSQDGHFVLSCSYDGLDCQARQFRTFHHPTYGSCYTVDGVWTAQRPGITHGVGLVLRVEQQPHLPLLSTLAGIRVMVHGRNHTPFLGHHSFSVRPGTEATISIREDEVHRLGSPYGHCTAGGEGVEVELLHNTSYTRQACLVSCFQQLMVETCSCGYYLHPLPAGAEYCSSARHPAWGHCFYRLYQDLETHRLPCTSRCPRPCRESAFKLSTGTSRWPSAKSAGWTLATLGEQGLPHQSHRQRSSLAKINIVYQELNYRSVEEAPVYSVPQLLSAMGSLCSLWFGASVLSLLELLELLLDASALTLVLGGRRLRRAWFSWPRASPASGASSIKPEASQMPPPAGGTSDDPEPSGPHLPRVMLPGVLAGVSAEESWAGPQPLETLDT
# T2 sequence (P51168 1-640): T1 sequence (P51168 1-640)
# T2 sequence (P51170 1-649): T1 sequence (P51170 1-649 partner)
# Protocol: ENaC activation current value, namely, the inward current in ENaC-expressing oocyte was measured as follows.
# According to the method described in Motonao Nakamura, Takao Shimizu: Experiment of African clawed frog oocyte, Experimental Medicine Vol. 11, No. 3, 224-232 (1993), oocyte was collected from African clawed frog, […], and the current value was measured by a Two Electrode Voltage Clamp technique. In the present invention, ND96 (96 mM NaCl, 2 mM KCl, 1 mM MgCl2, 5 mM Hepes, 1.8 mM CaCl2, pH 7.6) was used instead of MBS buffer in the above-mentioned document. Injector NANOLITER 2000 manufactured by World Precision Instruments was used for microinjection, OpusXpress 6000A manufactured by Molecular Devices was used for current value measurement by a Two Electrode Voltage Clamp technique, and Clampfit 10.2 software manufactured by Molecular Devices was used for data analysis.
# Human ENaC δ, β and γ subunit genes shown by SEQ ID NOs: 1, 2 and 3, respectively, in the Sequence Listing were each cloned into a plasmid vector, and used as a template DNA for cRNA synthesis. cRNA was synthesized using MEGAscript kit manufactured by Ambion and according to the method of the manual of the manufacturer.
# A mixture of the same amount of ENaC δ subunit cRNA (0.4 to 0.8 μg/μL), and β and γ subunits cRNA (0.4 μg/μL) was injected into the oocyte of African clawed frog at 27.6 nL per oocyte, and the oocyte was cultured for 16 hours to 72 hours. Thereafter, the oocyte was set on a measuring apparatus OpusXpress 6000A, the electrodes were inserted into the oocyte, the voltage was clamped at a level lower by −30 mV than the resting membrane potential by a Two Electrode Voltage Clamp technique, and the current value was measured.
# To measure the ENaC activation potency, oocyte was stimulated with each test compound, and the minimum effective dose (hereinafter to be abbreviated as MED) of the compound at the time point when the electric current started to increase was measured. In this case, the minimum effective dose of the stimulation compound that increased the current value by not less than 10%, as compared to the current value before addition of the compound and without stimulation, was taken as MED. A smaller MED means higher ENaC activation potency.
# Each test compound was directly dissolved in ND96, or first dissolved in dimethyl sulfoxide (DMSO) to 100 mM, and then prepared by diluting the solution with ND96 to a concentration used for the evaluation. The concentration of the test compound in ND96 was prepared to various concentrations within the range of 0.1 nM to 300 μm.
# ND96 as a perfusion fluid was flowed at a rate of 0.5 mL/min through the measuring apparatus OpusXpress 6000A on which ENaC-expressing oocyte was set, the perfusion fluid was temporarily stopped every 3 minutes to add a test compound solution (0.25 mL) dissolved in ND96 at a rate of 0.5 mL/minute. In this way, the test compound was contacted with ENaC-expressing oocyte, and whether ENaC is activated by the compound was examined by measuring the current value. After addition of the test compound, feeding of the perfusion fluid was resumed to wash away the compound to be ready for the next addition of the compound.
# The compound was added successively from a low concentration to a high concentration to stimulate ENaC-expressing oocyte. The concentrations actually added was, for example, 1 nM, 3 nM, 10 nM, 30 nM, 100 nM, 300 nM; 1 μM, 3 μM, 10 μm, 30 μm, 100 μm, 300 μm; 1.2 μM, 6 μM, 30 μm, 150 μm of one test compound. The compound was added from low concentrations to high concentrations at 3 minute intervals. The first compound was added from a low concentration to a high concentration, then the second and the third compounds were similarly added successively to the same oocyte, and changes in the current value were measured. The current value was continuously measured from the start to the end of the experiment. […]
structure (smiles),measurement,setting,value
"Cc1cccc2[nH]cc(SC(CC(C)C)C(=O)NCCO)c12 (centres unmarked) [Example S3969, N-(2-hydroxyethyl)-4-methyl-2-(4-methyl-1H-indol-3-ylthio)pentanamide]",action on ENaC,[1],stimulant (activator) of ENaC that acts on β subunit
"CC(C)(C)OC(=O)NC(Cc1c[nH]c2ccccc12)C(=O)Nc1c(O)cccc1O (stereo in doubt) [Example 21, tert-butyl (S)-1-(2,6-dihydroxyphenylcarbamoyl)-2-(1H-indol-3-yl)ethylcarbamate]",MED value (minimum effective dose),[2],10 µM
